Test results published in PubChem BioAssay (NCI).
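GI50 marks 50% less growth. At the TGI there is no net growth.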

Experiments:
Assay in all cases: NCI tumour cell line growth inhibition, 384-well format; in the data active = GI50 below about 0.43 µM; inactive = the rest
IGROV1 ovarian = tested on: IGROV1 ovarian
K-562 leukemia = tested on: K-562 leukemia
KM12 colon = tested on: KM12 colon
MOLT-4 leukemia = tested on: MOLT-4 leukemia
OVCAR-8 ovarian = tested on: OVCAR-8 ovarian
BT-549 breast = tested on: BT-549 breast
MDA-MB-468 breast = tested on: MDA-MB-468 breast
HOP-62 NSCLC = tested on: HOP-62 NSCLC
OVCAR-4 ovarian = tested on: OVCAR-4 ovarian
A549 NSCLC = tested on: A549 NSCLC
MCF7 breast = tested on: MCF7 breast
HOP-92 NSCLC = tested on: HOP-92 NSCLC
PC-3 prostate = tested on: PC-3 prostate
CAKI-1 renal = tested on: CAKI-1 renal
SNB-19 CNS = tested on: SNB-19 CNS
HCT-15 colon = tested on: HCT-15 colon
SF-295 CNS = tested on: SF-295 CNS
M14 melanoma = tested on: M14 melanoma
NCI-H23 lung = tested on: NCI-H23 lung
LOX IMVI melanoma = tested on: LOX IMVI melanoma
SF-539 CNS = tested on: SF-539 CNS
RPMI-8226 leukemia = tested on: RPMI-8226 leukemia
HL-60(TB) leukemia = tested on: HL-60(TB) leukemia
HT29 colon = tested on: HT29 colon
U251 glioblastoma = tested on: U251 glioblastoma
786-0 renal = tested on: 786-0 renal
HCT-116 colon = tested on: HCT-116 colon
SNB-75 CNS = tested on: SNB-75 CNS
SF-268 CNS = tested on: SF-268 CNS
UACC-62 melanoma = tested on: UACC-62 melanoma
SW-620 colon = tested on: SW-620 colon
OVCAR-5 ovarian = tested on: OVCAR-5 ovarian
SK-OV-3 ovarian = tested on: SK-OV-3 ovarian
CCRF-CEM leukemia = tested on: CCRF-CEM leukemia
T-47D breast = tested on: T-47D breast
SN12C renal = tested on: SN12C renal
UO-31 renal = tested on: UO-31 renal
SK-MEL-2 melanoma = tested on: SK-MEL-2 melanoma
DU-145 prostate = tested on: DU-145 prostate
OVCAR-3 ovarian = tested on: OVCAR-3 ovarian
ACHN renal = tested on: ACHN renal
SK-MEL-28 melanoma = tested on: SK-MEL-28 melanoma
MALME-3M melanoma = tested on: MALME-3M melanoma
NCI-H226 lung = tested on: NCI-H226 lung
NCI-H522 lung = tested on: NCI-H522 lung
RXF 393 renal = tested on: RXF 393 renal
NCI/ADR-RES ovarian = tested on: NCI/ADR-RES ovarian

N[C@@H](Cc1ccc(N(CCCl)CCCl)cc1)C(=O)O
30.7 µM: TGI (MALME-3M melanoma)
4.41 µM: TGI (CCRF-CEM leukemia)
58.5 µM: TGI (SF-539 CNS)
90 µM: TGI (DU-145 prostate)
2.78 µM: TGI (HL-60(TB) leukemia)
33.3 µM: TGI (RXF 393 renal)
inactive: GI50 (IGROV1 ovarian) 85.1 µM | GI50 (K-562 leukemia) 27.8 µM | GI50 (KM12 colon) 70.3 µM | GI50 (MOLT-4 leukemia) 1.01 µM | GI50 (OVCAR-8 ovarian) 11.8 µM | GI50 (BT-549 breast) 16.9 µM | GI50 (MDA-MB-468 breast) 4.53 µM | GI50 (HOP-62 NSCLC) 11.7 µM | GI50 (OVCAR-4 ovarian) 40.7 µM | GI50 (A549 NSCLC) 26.9 µM | GI50 (MCF7 breast) 9.86 µM | GI50 (HOP-92 NSCLC) 28.2 µM | GI50 (PC-3 prostate) 80.2 µM | GI50 (CAKI-1 renal) 13.2 µM | GI50 (SNB-19 CNS) 48.1 µM | GI50 (HCT-15 colon) 11.1 µM | GI50 (SF-295 CNS) 19.2 µM | GI50 (M14 melanoma) 20.8 µM | GI50 (NCI-H23 lung) 17.8 µM | GI50 (LOX IMVI melanoma) 23.1 µM | GI50 (SF-539 CNS) 15.4 µM | GI50 (RPMI-8226 leukemia) 7.95 µM | GI50 (HL-60(TB) leukemia) 1.34 µM | GI50 (HT29 colon) 47 µM | GI50 (U251 glioblastoma) 16.1 µM | GI50 ([…]-0 renal) 28.9 µM | GI50 (HCT-116 colon) 23.8 µM | GI50 (SNB-75 CNS) 20.9 µM | GI50 (SF-268 CNS) 7.04 µM | GI50 (UACC-62 melanoma) 15.2 µM | GI50 (SW-620 colon) 26.8 µM | GI50 (OVCAR-5 ovarian) 34.2 µM | GI50 (SK-OV-3 ovarian) 20.5 µM | GI50 (CCRF-CEM leukemia) 2.38 µM | GI50 (T-47D breast) 41 µM | GI50 (SN12C renal) 8.12 µM | GI50 (UO-31 renal) 52 µM | GI50 (SK-MEL-2 melanoma) 63.1 µM | GI50 (DU-145 prostate) 28.5 µM | GI50 (OVCAR-3 ovarian) 26 µM | GI50 (ACHN renal) 19 µM | GI50 (SK-MEL-28 melanoma) 89.7 µM | GI50 (MALME-3M melanoma) 14 µM | GI50 (NCI-H226 lung) 87.8 µM | GI50 (NCI-H522 lung) 14.4 µM | GI50 (RXF 393 renal) 17.3 µM | GI50 (NCI/ADR-RES ovarian) 55.3 µM
60.5 µM: TGI (NCI-H23 lung)
82.1 µM: TGI (BT-549 breast)
40.1 µM: TGI (HOP-62 NSCLC)
43.7 µM: TGI (ACHN renal)
22.6 µM: TGI (RPMI-8226 leukemia)
18.7 µM: TGI (MDA-MB-468 breast)
43.1 µM: TGI (SF-295 CNS)
2.2 µM: TGI (MOLT-4 leukemia)
28.1 µM: TGI (NCI-H522 lung)
44.9 µM: TGI (SF-268 CNS)
96.2 µM: TGI (SK-OV-3 ovarian)
